Test results: patent publication US20110152090A1, “HERBICIDAL COMPOSITIONS COMPRISING FLUFENACET” (Bayer CropScience AG, priority 2009, published 2011)

Key:
Assay in all cases: Greenhouse trial: resistant biotypes, PE application (test method 9)
Format in all cases: in vivo
Details in all cases: g of AS/ha: (A) 90, (B) 1200, (C) 90, iodosulfuron 10
[1] = test system: MATCH (Matricaria chamomilla), sensitive and resistant
Experimental: (§1) In the standard design of the test, seeds of various broad-leaved weed and weed grass biotypes (origins) were sown in a 8-13 cm diameter pot filled with natural soil of a standard field soil (loamy silt; non-sterile) and covered with a covering soil layer of about 1 cm. The pots were then cultivated in a greenhouse (12-16 h of light, temperature day 20-22° C., night 15-18° C.) until the time of application. The pots were treated on a laboratory track sprayer with spray liquors comprising the compositions according to the invention, mixtures of the prior art or components used individually. Application of the active compounds or active compound combinations formulated as WG, WP, EC or otherwise was carried out at the appropriate growth stages of the plants. The application rate for the spray application was 100-600 l of water/ha. After the treatment, the plants were returned to the greenhouses.
(§2) About 3 weeks after the application, the soil action or/and foliar action was assessed visually according to a scale of 0-100% in comparison to an untreated comparative group: 0%=no noticeable effect compared to the untreated comparative group; 100%=full effect compared to the untreated comparative group.
(§3) (notes: the term “seeds” also includes vegetative propagation forms such as, for example, rhizome pieces; abbreviations used: h light=hours of illumination, g of AS/ha=gram of active substance per hectare, l/ha=liter per hectare, S=sensitive, R=resistant) • 1. Pre-emergence action against weeds: seeds of various broad-leaved weed and weed grass biotypes (origins) were sown in a 8-13 cm diameter pot filled with natural soil of a standard field soil (loamy silt; non-sterile) and covered with a covering soil layer of about 1 cm. The pots were then cultivated in a greenhouse (12-16 h of light, temperature day 20-22° C., night 15-18° C.) until the time of application. The pots were treated at the BBCH stage 00-10 of the seeds/plants on a laboratory track sprayer with spray liquors comprising the compositions according to the invention, mixtures or components used individually, as WG, WP, EC or other formulations. The application rate for the spray application was 100-600 l of water/ha. After the treatment, the plants were returned to the greenhouses and, when required, treated with fertilizer and watered. • 2. Post-emergence action against weeds: seeds of various broad-leaved weed and weed grass biotypes (origins) were sown in a 8-13 cm diameter pot filled with natural soil of a standard field soil (loamy silt; non-sterile) and covered with a covering soil layer of about 1 cm. The pots were then cultivated in a greenhouse (12-16 h of light, temperature day 20-22° C., night 15-18° C.) until the time of application. The pots were treated at various BBCH stages between 11-25 of the seeds/plants, i.e. generally between two to three weeks after the start of the cultivation, on a laboratory track sprayer with spray liquors comprising the compositions according to the invention, mixtures or components used individually, as WG, WP, EC or other formulations. The application rate for the spray application was 100-600 l of water/ha. After the treatment, the plants were returned to the greenhouses and, when required, treated with fertilizer and watered. • 3. Pre-emergence action against weeds with and without incorporation of active compound: seeds of various broad-leaved weed and weed grass biotypes (origins) were sown in a 8-13 cm diameter pot filled with natural soil of a standard field soil (loamy silt; non-sterile). […]

[2] = test system: STEME (Stellaria media), sensitive and resistant
Experimental: as §1, §2, §3

[3] = test system: LOLSS (Lolium species), sensitive and resistant
Experimental: as §1, §2, §3

For COc1nc(C)nc(NC(=O)NS(=O)(=O)c2cc(I)ccc2C(=O)O)n1 [iodosulfuron], which “activity MATCH resistant (visual scale 0-100%)” value ([1]; resistant biotype) is on record?
The value was 60%.

What about the “activity MATCH sensitive (visual scale 0-100%)” value ([1]; sensitive biotype) of the same molecule?
The value was 100%.

What about the “activity STEME resistant (visual scale 0-100%)” value ([2]; resistant biotype) of the same molecule?
The value was 40%.

What about the “activity STEME sensitive (visual scale 0-100%)” value ([2]; sensitive biotype) of the same molecule?
Its value is 90%.

What about the “activity LOLSS resistant (visual scale 0-100%)” value ([3]; resistant biotype) of the same molecule?
Its value is 50%.

And the “activity LOLSS sensitive (visual scale 0-100%)” value ([3]; sensitive biotype)?
Its value is 98%.
